This is an account of results in patent publication US9365522B2, “Pyrazole amide derivative” (AMGEN INC., priority 2015, dated 2016).

Each structure is given as a SMILES string.

This assay has as its target T1, human RORγ-LBD (Homo sapiens, UniProt P51449).
T1 construct: made in house; host or cells: E. coli (BL-21)
T1 sequence (P51449 262-518): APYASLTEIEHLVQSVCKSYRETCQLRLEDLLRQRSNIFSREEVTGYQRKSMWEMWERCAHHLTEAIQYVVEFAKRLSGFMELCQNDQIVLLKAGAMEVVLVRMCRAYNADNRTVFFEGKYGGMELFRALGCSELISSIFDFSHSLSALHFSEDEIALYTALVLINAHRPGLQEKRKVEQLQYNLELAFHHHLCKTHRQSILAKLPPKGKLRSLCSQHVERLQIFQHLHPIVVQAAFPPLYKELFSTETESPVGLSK
Kind of assay: ROR gamma coactivator peptide recruitment Alphascreen assay (RORγ-LBD binding to GRIP1 coactivator peptide). Format: biochemical. The conditions noted are these: 5 nM human RORγ-LBD, 30 nM 7-β-hydroxycholesterol, 50 nM biotinylated GRIP1 coactivator peptide, overnight incubation at room temperature; read-out: result (pIC50, RORγ coactivator peptide recruitment Alphascreen assay) (converted). In outline:
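His/Flag-tagged human RORγ-LBD (aa 262-518, E. coli-expressed, 5 nM) with agonist 7-β-hydroxycholesterol (30 nM) and biotinylated GRIP1 LXXLL peptide (50 nM) in HEPES pH 7.4 buffer, 2.5% DMSO. Compound 1-in-2 dilutions; Alphascreen bead signal read after overnight incubation at room temperature; pIC50 calculated.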

`Cc1cc(Cl)c(C(=O)CN(CC2(C)CCCCC2)C(=O)c2cnn([C@H]3CC[C@](C)(C(=O)O)CC3)c2C(F)(F)F)c(Cl)c1` [Example 571, trans-4-(4-((2-(2,6-dichloro-4-methylphenyl)-2-oxoethyl)((1-methylcyclohexyl)methyl)carbamoyl)-5-(trifluoromethyl)-1H-pyrazol-1-yl)-1-methylcyclohexanecarboxylic acid]: the IC50 is 1.26 nM. The figure for `CC(C)(C)CN(C[C@H](O)c1c(Cl)cccc1Cl)C(=O)c1cnn([C@H]2CC[C@H](C(=O)O)CC2)c1C(F)(F)F` [Example 573, trans-4-(4-(((2R)-2-(2,6-dichlorophenyl)-2-hydroxyethyl)(2,2-dimethylpropyl)carbamoyl)-5-(trifluoromethyl)-1H-pyrazol-1-yl)cyclohexanecarboxylic acid] is 79.4 nM; for `CC(C)(C)CN(C[C@@H](O)c1c(Cl)cccc1Cl)C(=O)c1cnn([C@H]2CC[C@H](C(=O)O)CC2)c1C(F)(F)F` [Example 574, trans-4-(4-(((2S)-2-(2,6-dichlorophenyl)-2-hydroxyethyl)(2,2-dimethylpropyl)carbamoyl)-5-(trifluoromethyl)-1H-pyrazol-1-yl)cyclohexanecarboxylic acid] it is 2570 nM. To `COc1cc(Cl)c(C(=O)CN(C(=O)c2cnn([C@H]3CC[C@H](C(=O)O)CC3)c2C(F)(F)F)C2CCC(C)(C)CC2)c(Cl)c1` [Example 575, trans-4-(4-((2-(2,6-dichloro-4-methoxyphenyl)-2-oxoethyl)(4,4-dimethylcyclohexyl)carbamoyl)-5-(trifluoromethyl)-1H-pyrazol-1-yl)cyclohexanecarboxylic acid] belongs 17 nM; to `C[C@]1(C(=O)O)CC[C@H](n2ncc(C(=O)N3CC4(CC=CC4)C[C@@H]3Cc3c(Cl)cncc3Cl)c2C(F)(F)F)CC1` [Example 576, trans-4-(4-(((3R)-3-((3,5-dichloro-4-pyridinyl)methyl)-2-azaspiro[4.4]non-7-en-2-yl)carbonyl)-5-(trifluoromethyl)-1H-pyrazol-1-yl)-1-methylcyclohexanecarboxylic acid], 34.7 nM. For the molecule `CC1(CN(CC(=O)c2c(Cl)cncc2Cl)C(=O)c2cnn([C@H]3CC[C@](C)(C(=O)O)CC3)c2C(F)(F)F)CC1` [Example 577, trans-4-(4-((2-(3,5-dichloro-4-pyridinyl)-2-oxoethyl)((1-methylcyclopropyl)methyl)carbamoyl)-5-(trifluoromethyl)-1H-pyrazol-1-yl)-1-methylcyclohexanecarboxylic acid], the IC50 was 11.7 nM. The figure for `CC1(C)CC[C@@H]1N(CC(=O)c1c(Cl)cncc1Cl)C(=O)c1cnn([C@H]2CC[C@](C)(C(=O)O)CC2)c1C(F)(F)F` [Example 578, trans-4-(4-((2-(3,5-dichloro-4-pyridinyl)-2-oxoethyl)((1S)-2,2-dimethylcyclobutyl)carbamoyl)-5-(trifluoromethyl)-1H-pyrazol-1-yl)-1-methylcyclohexanecarboxylic acid] is 100 nM; for `COc1cc(Cl)c(C(=O)CN(C(=O)c2cnn([C@H]3CC[C@](C)(C(=O)O)CC3)c2C(F)(F)F)C2CCC(C)(C)CC2)c(Cl)c1` [Example 579, trans-4-(4-((2-(2,6-dichloro-4-methoxyphenyl)-2-oxoethyl)(4,4-dimethylcyclohexyl)carbamoyl)-5-(trifluoromethyl)-1H-pyrazol-1-yl)-1-methylcyclohexanecarboxylic acid] it is 4.27 nM; for `COc1cc(Cl)c(C(=O)CN(CC2CC(C)(C)C2)C(=O)c2cnn([C@H]3CC[C@H](C(=O)O)CC3)c2C(F)(F)F)c(Cl)c1` [Example 580, trans-4-(4-((2-(2,6-dichloro-4-methoxyphenyl)-2-oxoethyl)((3,3-dimethylcyclobutyl)methyl)carbamoyl)-5-(trifluoromethyl)-1H-pyrazol-1-yl)cyclohexanecarboxylic acid] it is 5.01 nM. To `COc1cc(Cl)c(C(=O)CN(CC2CC(C)(C)C2)C(=O)c2cnn([C@H]3CC[C@](C)(C(=O)O)CC3)c2C(F)(F)F)c(Cl)c1` [Example 581] belongs 3.47 nM; to `C[C@]1(C(=O)O)CC[C@H](n2ncc(C(=O)N3CC4(CCCC4)C[C@@H]3Cc3c(Cl)cncc3Cl)c2C(F)(F)F)CC1` [Example 582, trans-4-(4-(((3R)-3-((3,5-dichloro-4-pyridinyl)methyl)-2-azaspiro[4.4]non-2-yl)carbonyl)-5-(trifluoromethyl)-1H-pyrazol-1-yl)-1-methylcyclohexanecarboxylic acid], 22.9 nM; to `Cc1cc(Cl)c(C(=O)CN(CC2CC3(CC3)C2)C(=O)c2cnn([C@H]3CC[C@](C)(C(=O)O)CC3)c2C(F)(F)F)c(Cl)c1` [Example 583, trans-4-(4-((2-(2,6-dichloro-4-methylphenyl)-2-oxoethyl)(spiro[2.3]hex-5-ylmethyl)carbamoyl)-5-(trifluoromethyl)-1H-pyrazol-1-yl)-1-methylcyclohexanecarboxylic acid], 2.4 nM.

With `COc1cc(Cl)c(C(=O)CN(CC2(F)CCCC2)C(=O)c2cnn([C@H]3CC[C@](C)(C(=O)O)CC3)c2C(F)(F)F)c(Cl)c1` [Example 584, trans-4-(4-((2-(2,6-dichloro-4-methoxyphenyl)-2-oxoethyl)((1-fluorocyclopentyl)methyl)carbamoyl)-5-(trifluoromethyl)-1H-pyrazol-1-yl)-1-methylcyclohexanecarboxylic acid], the IC50 was 5.75 nM. To `CC1(C)CC(CN(CC(=O)c2ccccc2Br)C(=O)c2cnn([C@H]3CC[C@@H](C(=O)O)CC3)c2C(F)(F)F)C1` [Example 585, cis-4-(4-((2-(2-bromophenyl)-2-oxoethyl)((3,3-dimethylcyclobutyl)methyl)carbamoyl)-5-(trifluoromethyl)-1H-pyrazol-1-yl)cyclohexanecarboxylic acid] belongs 69.2 nM; to `CC1(C)CC(N(CC(=O)c2c(Cl)cncc2Cl)C(=O)c2cnn([C@H]3CC[C@](C)(C(=O)O)CC3)c2C(F)(F)F)C1` [Example 587, trans-4-(4-((2-(3,5-dichloro-4-pyridinyl)-2-oxoethyl)(3,3-dimethylcyclobutyl)carbamoyl)-5-(trifluoromethyl)-1H-pyrazol-1-yl)-1-methylcyclohexanecarboxylic acid], 67.6 nM. To `CC1(CN(CC(=O)c2c(Cl)cncc2Cl)C(=O)c2cnn([C@H]3CC[C@](C)(C(=O)O)CC3)c2C(F)(F)F)CCCCC1` [Example 588, trans-4-(4-((2-(3,5-dichloro-4-pyridinyl)-2-oxoethyl)((1-methylcyclohexyl)methyl)carbamoyl)-5-(trifluoromethyl)-1H-pyrazol-1-yl)-1-methylcyclohexanecarboxylic acid] belongs 3.31 nM. The figure for `CC1(C)CC(CN(CC(=O)c2ccccc2Br)C(=O)c2cnn([C@H]3CC[C@](C)(C(=O)O)CC3)c2C(F)(F)F)C1` [Example 589, trans-4-(4-((2-(2-bromophenyl)-2-oxoethyl)((3,3-dimethylcyclobutyl)methyl)carbamoyl)-5-(trifluoromethyl)-1H-pyrazol-1-yl)-1-methylcyclohexanecarboxylic acid] is 42.7 nM; for `COc1cc(Cl)c(C(=O)CN(CC2(F)CCCC2)C(=O)c2cnn([C@H]3CC[C@@H](C(=O)O)CC3)c2C(F)(F)F)c(Cl)c1` [Example 590, cis-4-(4-((2-(2,6-dichloro-4-methoxyphenyl)-2-oxoethyl)((1-fluorocyclopentyl)methyl)carbamoyl)-5-(trifluoromethyl)-1H-pyrazol-1-yl)cyclohexanecarboxylic acid] it is 174 nM. `CC1(CN(CCc2c(Cl)cncc2Cl)C(=O)c2cnn([C@H]3CC[C@](C)(C(=O)O)CC3)c2C(F)(F)F)CCCC1` [Example 591, trans-4-(4-((2-(3,5-dichloro-4-pyridinyl)ethyl)((1-methylcyclopentyl)methyl)carbamoyl)-5-(trifluoromethyl)-1H-pyrazol-1-yl)-1-methylcyclohexanecarboxylic acid]: the IC50 is 2.09 nM. To `C[C@]1(C(=O)O)CC[C@H](n2ncc(C(=O)N(CC(=O)c3c(Cl)cncc3Cl)CC3CCCC3)c2C(F)(F)F)CC1` [Example 592, trans-4-(4-((cyclopentylmethyl)(2-(3,5-dichloro-4-pyridinyl)-2-oxoethyl)carbamoyl)-5-(trifluoromethyl)-1H-pyrazol-1-yl)-1-methylcyclohexanecarboxylic acid] belongs 6.76 nM; to `C[C@]1(C(=O)O)CC[C@H](n2ncc(C(=O)N(CC(=O)c3c(Cl)cncc3Cl)CC3(F)CC3)c2C(F)(F)F)CC1` [Example 593, trans-4-(4-((2-(3,5-dichloro-4-pyridinyl)-2-oxoethyl)((1-fluorocyclopropyl)methyl)carbamoyl)-5-(trifluoromethyl)-1H-pyrazol-1-yl)-1-methylcyclohexanecarboxylic acid], 33.1 nM; to `C[C@]1(C(=O)O)CC[C@H](n2ncc(C(=O)N(CC(=O)c3c(Cl)cncc3Cl)CC3CC(F)(F)C3)c2C(F)(F)F)CC1` [Example 594, trans-4-(4-((2-(3,5-dichloro-4-pyridinyl)-2-oxoethyl)((3,3-difluorocyclobutyl)methyl)carbamoyl)-5-(trifluoromethyl)-1H-pyrazol-1-yl)-1-methylcyclohexanecarboxylic acid], 74.1 nM.
